Measurements as given in PubChem BioAssay (NCI).
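Cultured in 96-well plates, cells were exposed to test compound for 48 hours across five concentrations. The concentration for full growth arrest is given as TGI.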

Columns and labels:
Test in all cases: NCI-60 cell line screen, 48 h
[1] = tested on: HOP-92 NSCLC
[2] = tested on: OVCAR-3 ovarian
[3] = tested on: 786-0 renal
[4] = tested on: OVCAR-4 ovarian
[5] = tested on: HOP-62 NSCLC
[6] = tested on: M14 melanoma
[7] = tested on: SF-295 CNS
[8] = tested on: A549 NSCLC
[9] = tested on: HCT-15 colon
[10] = tested on: U251 CNS
[11] = tested on: SW-620 colon
[12] = tested on: SK-MEL-2 melanoma
[13] = tested on: OVCAR-5 ovarian
[14] = tested on: IGROV1 ovarian
[15] = tested on: K-562 leukemia
[16] = tested on: RPMI-8226 leukemia
[17] = tested on: TK-10 renal
[18] = tested on: EKVX NSCLC
[19] = tested on: COLO 205 colon
[20] = tested on: DU-145 prostate
[21] = tested on: MALME-3M melanoma
[22] = tested on: MDA-N
[23] = tested on: T-47D breast
[24] = tested on: SR leukemia
[25] = tested on: KM12 colon
[26] = tested on: MDA-MB-435
[27] = tested on: BT-549 breast
[28] = tested on: HT29 colon
[29] = tested on: HCC-2998 colon
[30] = tested on: SF-539 CNS
[31] = tested on: SK-MEL-5 melanoma
[32] = tested on: NCI-H23 lung
[33] = tested on: NCI-H226 lung
[34] = tested on: PC-3 prostate
[35] = tested on: MCF7 breast
[36] = tested on: LOX IMVI melanoma
[37] = tested on: A498 renal
[38] = tested on: RXF 393 renal
[39] = tested on: MDA-MB-231 breast
[40] = tested on: OVCAR-8 ovarian
[41] = tested on: SN12C renal
[42] = tested on: HCT-116 colon
[43] = tested on: UACC-62 melanoma
[44] = tested on: SK-OV-3 ovarian
[45] = tested on: UACC-257 melanoma
[46] = tested on: CCRF-CEM leukemia
[47] = tested on: MOLT-4 leukemia
[48] = tested on: NCI/ADR-RES ovarian
[49] = tested on: SK-MEL-28 melanoma
[50] = tested on: SF-268 CNS
[51] = tested on: SNB-75 CNS
[52] = tested on: CAKI-1 renal

## Fc1cccc(F)c1C1SCc2nc3cc4ccccc4cc3n21 (configuration not stated)
[1]
  TGI: 69.2 µM
[2]
  TGI: 36.6 µM
[3]
  TGI: > 100 µM
[4]
  TGI: 36.7 µM
[5]
  TGI: > 100 µM
[6]
  TGI: > 100 µM
[7]
  TGI: > 100 µM
[8]
  TGI: > 100 µM
[9]
  TGI: 55 µM
[10]
  TGI: > 100 µM
[11]
  TGI: > 100 µM
[12]
  TGI: > 100 µM
[13]
  TGI: > 100 µM
[14]
  TGI: 72.9 µM
[15]
  TGI: 48.6 µM
[16]
  TGI: 73.7 µM
[17]
  TGI: > 100 µM
[18]
  TGI: > 100 µM
[19]
  TGI: > 100 µM
[20]
  TGI: > 100 µM
[21]
  TGI: > 100 µM
[22]
  TGI: > 100 µM
[23]
  TGI: > 100 µM
[24]
  TGI: > 100 µM
[25]
  TGI: > 100 µM
[26]
  TGI: > 100 µM
[27]
  TGI: > 100 µM
[28]
  TGI: 80.3 µM
[29]
  TGI: 54.1 µM
[30]
  TGI: 45.1 µM
[31]
  TGI: > 100 µM
[32]
  TGI: > 100 µM
[33]
  TGI: > 100 µM
[34]
  TGI: > 100 µM
[35]
  TGI: > 100 µM
[36]
  TGI: > 100 µM
[37]
  TGI: 67.3 µM
[38]
  TGI: > 100 µM
[39]
  TGI: > 100 µM
[40]
  TGI: > 100 µM
[41]
  TGI: > 100 µM
[42]
  TGI: > 100 µM
[43]
  TGI: > 100 µM
[44]
  TGI: > 100 µM
[45]
  TGI: > 100 µM
[46]
  TGI: 62.4 µM
[47]
  TGI: 81.5 µM
[48]
  TGI: > 100 µM
[49]
  TGI: > 100 µM
[50]
  TGI: > 100 µM
[51]
  TGI: 72.3 µM
[52]
  TGI: > 100 µM
